Results published in patent US7112676B2, “Pyrimido compounds having antiproliferative activity” (Hoffmann-La Roche Inc., priority 2002, dated 2006).

Key:
KDR = target: T1, KDR (Homo sapiens, UniProt P35968); assay: KDR kinase HTRF assay; format: biochemical; conditions: 0.3 mM ATP, read-out: IC50 (μM) - Enzyme Inhibition Assays KDR
T1 construct: EEE-tag
Experimental: (§1) To determine inhibition of KDR, FGFR, EGFR, and PDGFR activity, kinase assays were conducted using an HTRF (Homogeneous Time Resolved Fluorescence) assay. This assay is described in A. J. Kolb et. al., Drug Discovery Today, 1998, 3(7), p 333.
Prior to kinase reaction, recombinant EEE-tagged KDR was activated in the presence of activation buffer (50 mM HEPES, pH 7.4, 1 mM DTT, 10% glycerol, 150 mM NaCl, 0.1 mM EDTA, 26 mM MgCl2, and 4 mM ATP). The enzyme was incubated at 4° C. for 1 hour.
(§2) Kinase activity assays were performed in 96-well polypropylene plates (Falcon) with a total volume of 90 μL in each well. Each well contained 1 μM KDR substrate (Biotin-EEEEYFELVAKKKK), 1 nM activated KDR, and a test compound with one of 8 assay concentrations ranging from 100 μM to […] (1:5 serial dilution). The kinase activity assay was done in the presence of 100 mM HEPES, pH 7.4, 1 mM DTT, 0.1 mM Na2VO4, 25 mM MgCl2, 50 mM NaCl (from KDR stock solution), 1% DMSO (from compound), 0.3 mM ATP (at Km concentration) and 0.02% BSA. The reaction was incubated at 37° C. for 30 minutes. To stop the KDR reaction, 72 μL of reaction mixture was transferred into a STOP plate containing 18 μL of revelation buffer (20 mM EDTA, 50 mM HEPES, pH 7.4, 0.02% BSA, 10 nM Eu-labelled anti-pY antibody (final conc. 2 nM), and 100 nM streptavidin (final conc. 20 nM)). After mixing, 35 μL of solution was transferred into duplicate wells of a 384-well black plate (Costar), and read at 615/665 nm on a Wallac Victor 5 reader.
(§3) Compound IC50 values were determined from duplicate sets of data, and calculated by using Excel and fitting data to equation Y=[(a−b)/{1+(X/c)^d]+b, where a and b are enzyme activity in the presence of no test inhibitor compound and an infinite amount of inhibitor test compound, respectively, c is the IC50 and d is the hill constant of the compound response. The IC50 value is the concentration of test compound that reduces by 50% the enzyme activity under the test conditions described.

FGFR = target: T2, FGFR; assay: FGFR kinase HTRF assay; format: biochemical; conditions: 10 μM ATP, read-out: IC50 (μM) - Enzyme Inhibition Assays FGFR
T2 construct: fused on or other part: GST tag
Experimental: as §1, §2
FGFR, EGFR, and PDGFR activity assays were carried out as described above for the KDR activity assay with the following differences. GST-tagged FGFR enzyme was activated at room temperature for 1 hour in the following activation buffer: 100 mM HEPES, pH 7.4, 50 mM NaCl, 20 mM MgCl2, and 4 mM ATP. The kinase activity assay was performed with 1 μM substrate (Biotin-EEEEYFELV), 1.5 nM activated FGFR, and test compound in the presence of 100 mM HEPES, 1 mM DTT, 0.4 mM MgCl2, 0.4 mM MnCl2, 50 mM NaCl, 1% DMSO, 10 μM ATP (Km=8.5 μM for FGFR), 0.1 mM Na2VO4, and 0.02% BSA, in a total volume of 90 μL. The rest of the assay was performed in the same manner as KDR assay.
as §3

EGFR = EGFR (Homo sapiens, UniProt P00533); assay: EGFR kinase HTRF assay; format: biochemical; conditions: 0.5 μM ATP, read-out: IC50 (μM) - Enzyme Inhibition Assays EGFR
Experimental: as §1, §2
(§4) The EGFR kinase activity assay was performed with 1 μM substrate (Biotin-EEEEYFELV), 1.5 nM EGFR, test compounds, 100 mM HEPES, pH 7.4, 1 mM DTT, 5 mM MgCl2, 2 mM MnCl2, 1% DMSO, 0.5 μM ATP (Km for EGFR), 0.1 mM Na2VO4, and 0.02% BSA. The rest of the assay was performed in the same manner as the KDR assay.
as §3

PDGFR = PDGFR kinase HTRF assay; format: biochemical; conditions: 2.3 μM ATP, read-out: IC50 (μM) - Enzyme Inhibition Assays PDGFR
Experimental: as §1, §2
as §4, with “PDGFR” for “EGFR”, “1.0” for “1.5”, “PDGFR,” for “EGFR,”, “2.3” for “0.5”, “PDGFR),” for “EGFR),”
as §3

VEGF-stimulated HUVEC = VEGF-stimulated HUVEC proliferation assay (BrdU); format: cell-based; conditions: Homo sapiens, VEGF 20 ng per mL, BrdU labeling, 24 hour exposure, read-out: IC50 (μM) of VEGF and FGF-Stimulated HUVEC Proliferation Assays HUVEC/VEFG
Experimental: (§5) The antiproliferative activity of test compounds of this invention in cell-based assays was evaluated by BrdU assay using the BrdU kit (Roche Biochemicals 1-647-229). Human umbilical vein endothelial cells (HUVEC, Clonetics CC-2519) were cultured in EGM-2 (Clonetics CC-3162) medium and seeded at 10000 cells per well in a volume of 200 μL of EGM-2 (Clonetics CC-3162) media in a 96-well flat bottom plates (Costar 3595) overnight. After 24 hours of growth at 37° C. with 5% CO2, the incubation media was removed slowly by aspiration and the content of each well was washed with 300 μL pre-warmed EBM-2 (Clonetics CC-3156) containing 50 μg per mL of gentamycin and 50 ng per mL of amphotercin-B (Clonetics CC-4083). Subsequently, the remaining media was again aspirated and replaced with 160 μL per well of serum starvation media (EBM-2 supplemented with 1% heat inactivated FBS (Clonetics CC-4102), 50 μg per mL gentamycin and 50 ng per mL of amphotercin-B (Clonetics CC-4083), 10 units per mL of Wyeth-Ayerst heparin (NDC0641-0391-25), and 2 mM L-glutamine (GIBCO 25030-081). After serum starving the cells for 24 hours, 20 μL of test compound at 10× test concentration in serum starvation medium with 2.5% DMSO was added to the appropriate wells. The control wells contained 20 μL of serum starvation medium with 2.5% DMSO. Plates were returned to the incubator for 2 hours. After pre-incubating the cells with the test compounds for 2 hours, 20 μL of growth factors at 10× assay concentration diluted in serum starvation media, FGF at 50 ng per mL, or VEGF (R&D systems 293-VE) at 200 ng per mL were added. The final concentration of FGF in the assay was 5 ng per mL and the final concentration of VEGF in the assays was 20 ng per mL. The growth factor free control wells had 20 μL per well of serum starvation media with the same amount of BSA as the wells with growth factors. The plates were returned to the incubator for an additional 22 hours.
(§6) After 24 hour exposure to the test compounds, the cells were labeled with BrdU (Roche Biochemicals 1-647-229), by adding 20 μL per well of BrdU labeling reagent that has been diluted (1:100) in serum starvation medium. The plates were then returned to the incubator for 4 hours. The labeling medium was removed by draining the medium onto paper towels. The cells were fixed and DNA denatured by adding 200 μL of fixation/denaturation solution to each well and incubating at room temperature for 45 minutes. The fixation/denaturation solution was drained onto paper towels and to each well was added 100 μL of anti-BrdU-POD and the wells were incubated for 2 hours at room temperature. The antibody solution was removed and the wells were each washed 3–4 times with 300 μl PBS. 100 μL of the TMB substrate solution was added to each well and the wells were incubated at room temperature for 5–8 minutes. The reaction was then stopped by adding 100 μL per well of 1 M phosphoric acid. The plates were read at 450 nm with reference wavelength of 650 nm. The percent inhibition for each test compound was calculated by subtracting the absorbency of the blank (no cells) wells from all wells, then subtracting the division of the average absorbency of each test duplicate by the average of the controls from 1. The final product was then multiplied by 100 (% of inhibition=(1−average absorbency of test duplicate/average of control)100). The IC50 value is the concentration of test compound that inhibits by 50% BrdU labeling, and is a measure of inhibition of cell proliferation. The IC50 is determined from the linear regression of a plot of the logarithm of the concentration versus percent inhibition.

FGF-stimulated HUVEC = FGF-stimulated HUVEC proliferation assay (BrdU); format: cell-based; conditions: Homo sapiens, FGF 5 ng per mL, BrdU labeling, 24 hour exposure, read-out: IC50 (μM) of VEGF and FGF-Stimulated HUVEC Proliferation Assays HUVEC/bFGFR
Experimental: as §5, §6

T1 sequence (P35968 20-1356, species assumed): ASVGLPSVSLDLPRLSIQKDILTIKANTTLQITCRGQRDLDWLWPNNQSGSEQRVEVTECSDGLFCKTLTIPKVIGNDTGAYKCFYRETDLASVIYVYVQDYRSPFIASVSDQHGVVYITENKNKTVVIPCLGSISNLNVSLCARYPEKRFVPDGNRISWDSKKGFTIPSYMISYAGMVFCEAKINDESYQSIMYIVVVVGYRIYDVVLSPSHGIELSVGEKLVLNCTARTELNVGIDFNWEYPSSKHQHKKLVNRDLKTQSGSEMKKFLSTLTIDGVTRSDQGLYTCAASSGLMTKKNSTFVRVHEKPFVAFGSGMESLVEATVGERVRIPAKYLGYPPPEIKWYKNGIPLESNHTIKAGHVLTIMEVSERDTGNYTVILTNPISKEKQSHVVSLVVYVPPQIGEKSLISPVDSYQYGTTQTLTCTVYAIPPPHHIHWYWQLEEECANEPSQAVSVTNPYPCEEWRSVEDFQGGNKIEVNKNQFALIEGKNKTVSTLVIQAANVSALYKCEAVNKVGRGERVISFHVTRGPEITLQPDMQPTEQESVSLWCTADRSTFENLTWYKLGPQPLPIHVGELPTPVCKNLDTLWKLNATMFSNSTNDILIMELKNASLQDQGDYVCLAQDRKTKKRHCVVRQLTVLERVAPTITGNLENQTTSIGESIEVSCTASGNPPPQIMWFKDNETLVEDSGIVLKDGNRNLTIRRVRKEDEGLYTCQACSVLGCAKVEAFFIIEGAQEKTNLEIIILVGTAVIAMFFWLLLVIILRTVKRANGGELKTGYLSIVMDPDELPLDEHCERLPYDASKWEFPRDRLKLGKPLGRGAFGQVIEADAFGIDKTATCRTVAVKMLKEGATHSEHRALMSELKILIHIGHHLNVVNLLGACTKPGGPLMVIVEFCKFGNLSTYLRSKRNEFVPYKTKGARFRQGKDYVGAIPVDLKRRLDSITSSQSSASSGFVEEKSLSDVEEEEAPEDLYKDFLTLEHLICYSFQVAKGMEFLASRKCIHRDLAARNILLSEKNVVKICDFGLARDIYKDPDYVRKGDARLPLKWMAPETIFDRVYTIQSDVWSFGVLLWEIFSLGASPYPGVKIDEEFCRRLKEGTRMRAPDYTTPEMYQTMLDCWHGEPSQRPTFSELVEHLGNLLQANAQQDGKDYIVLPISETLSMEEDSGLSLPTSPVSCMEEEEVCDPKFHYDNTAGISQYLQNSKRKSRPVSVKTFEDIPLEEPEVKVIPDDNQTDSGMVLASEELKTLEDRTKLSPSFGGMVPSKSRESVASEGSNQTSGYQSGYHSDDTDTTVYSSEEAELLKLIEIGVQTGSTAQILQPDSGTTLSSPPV
Sequence of EGFR (P00533 25-1210, species assumed): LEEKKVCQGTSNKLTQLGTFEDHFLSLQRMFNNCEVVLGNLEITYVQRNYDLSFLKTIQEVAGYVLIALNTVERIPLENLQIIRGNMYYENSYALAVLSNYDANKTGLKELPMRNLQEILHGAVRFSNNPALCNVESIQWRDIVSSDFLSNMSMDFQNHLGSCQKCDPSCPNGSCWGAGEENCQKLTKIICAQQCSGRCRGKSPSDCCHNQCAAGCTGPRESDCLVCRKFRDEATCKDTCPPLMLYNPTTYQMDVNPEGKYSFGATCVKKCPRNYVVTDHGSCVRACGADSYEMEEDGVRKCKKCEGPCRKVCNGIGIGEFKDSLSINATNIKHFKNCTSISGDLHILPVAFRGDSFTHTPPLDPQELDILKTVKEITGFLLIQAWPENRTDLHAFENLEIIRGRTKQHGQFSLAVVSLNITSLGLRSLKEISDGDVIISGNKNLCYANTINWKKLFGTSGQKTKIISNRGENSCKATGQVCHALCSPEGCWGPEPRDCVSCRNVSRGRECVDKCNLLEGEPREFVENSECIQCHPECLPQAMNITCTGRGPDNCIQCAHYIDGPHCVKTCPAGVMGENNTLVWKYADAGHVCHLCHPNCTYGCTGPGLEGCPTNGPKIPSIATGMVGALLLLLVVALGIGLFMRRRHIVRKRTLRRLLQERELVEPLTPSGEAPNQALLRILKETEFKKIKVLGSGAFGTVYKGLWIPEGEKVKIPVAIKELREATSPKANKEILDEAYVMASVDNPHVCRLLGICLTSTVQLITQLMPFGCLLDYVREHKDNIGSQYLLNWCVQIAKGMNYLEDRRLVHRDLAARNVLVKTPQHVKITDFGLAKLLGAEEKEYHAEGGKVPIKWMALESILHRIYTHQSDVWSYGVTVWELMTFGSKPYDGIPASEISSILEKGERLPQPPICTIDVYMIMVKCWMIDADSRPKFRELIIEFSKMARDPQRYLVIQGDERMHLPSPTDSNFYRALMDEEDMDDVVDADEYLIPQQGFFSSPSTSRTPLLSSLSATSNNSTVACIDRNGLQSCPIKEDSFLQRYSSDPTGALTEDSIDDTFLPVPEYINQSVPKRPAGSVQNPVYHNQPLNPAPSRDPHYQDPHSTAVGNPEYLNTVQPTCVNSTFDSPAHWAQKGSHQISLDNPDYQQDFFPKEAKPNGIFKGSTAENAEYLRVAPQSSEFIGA

| Compound | IC50 (KDR) [µM] | IC50 (FGFR) [µM] | IC50 (EGFR) [µM] | IC50 (PDGFR) [µM] | melting point [°C] | IC50 (VEGF-stimulated HUVEC) [µM] | IC50 (FGF-stimulated HUVEC) [µM] |
| --- | --- | --- | --- | --- | --- | --- | --- |
| COc1ccc(N2C(=O)N(c3ccccc3)c3nc(Nc4ccccc4)ncc3C2C(C)C)cc1 (racemic) [Example 11e, (±)-4-Isopropyl-3-(4-methoxy-phenyl)-1-phenyl-7-phenylamino-3,4-dihydro-1H-pyrimido[4,5-d]pyrimidin-2-one] | > 10 | > 10 | < 10 | > 10 | 229 to 235 | – | – |
| COc1ccc(Cl)c(N2C(=O)N(c3ccccc3)c3nc(Nc4ccccc4)ncc3C2C)c1 (racemic) [Example 12c, (±)-3-(2-Chloro-5-methoxy-phenyl)-4-methyl-1-phenyl-7-phenylamino-3,4-dihydro-1H-pyrimido[4,5-d]pyrimidin-2-one] | < 10 | < 10 | < 10 | < 10 | – | – | – |
| COc1ccc(N2C(=O)N(c3ccccc3)c3nc(N(C(C)=O)c4ccccc4)ncc3C2C)cc1 (racemic) [Example 19, (±)-N-[6-(4-Methoxy-phenyl)-5-methyl-7-oxo-8-phenyl-5,6,7,8-tetrahydro-pyrimido[4,5-d]pyrimidin-2-yl]-N-phenyl-acetamide] | < 10 | < 10 | < 10 | < 10 | – | < 10 | < 10 |
| COc1ccc(N2C(=O)N([C@@H](C)CO)c3nc(Nc4ccccc4)ncc3C2C)cc1 (stereo partly drawn) [Example 13d, 1-(2-Hydroxy-1-(S)-methyl-ethyl)-3-(4-methoxy-phenyl)-4-methyl-7-phenylamino-3,4-dihydro-1H-pyrimido[4,5-d]pyrimidin-2-one] | – | – | – | – | 165 to 180 | – | – |
| COc1ccc(N2C(=O)N([C@H](C)CO)c3nc(Nc4ccccc4)ncc3[C@H]2C)cc1 [Example 14f, 1-(2-Hydroxy-1-(R)-methyl-ethyl)-3-(4-methoxy-phenyl)-4-(R)-methyl-7-phenylamino-3,4-dihydro-1H-pyrimido[4,5-d]pyrimidin-2-one] | < 10 | < 10 | < 10 | < 10 | 158 to 162 | – | – |
| COc1ccc(N2C(=O)N([C@@H](C)c3ccccc3)c3nc(Nc4ccccc4)ncc3C2C)cc1 (stereo partly drawn) [Example 18, 3-(4-Methoxy-phenyl)-4-methyl-7-phenylamino-1-[1-(S)-phenyl-ethyl]-3,4-dihydro-1H-pyrimido[4,5-d]pyrimidin-2-one] | < 10 | < 10 | < 10 | < 10 | – | < 10 | < 10 |

Now from value to molecule, other results behind:

| IC50 (KDR) [µM] | IC50 (FGFR) [µM] | IC50 (EGFR) [µM] | IC50 (PDGFR) [µM] | melting point [°C] | Compound | IC50 (VEGF-stimulated HUVEC) [µM] | IC50 (FGF-stimulated HUVEC) [µM] |
| --- | --- | --- | --- | --- | --- | --- | --- |
| < 10 | < 10 | < 10 | < 10 | 172 to 176 | CCC1c2cnc(Nc3ccccc3)nc2N(c2ccccc2)C(=O)N1c1ccc(OC)cc1 (racemic) [Example 7e, (±)-4-Ethyl-3-(4-methoxy-phenyl)-1-phenyl-7-phenylamino-3,4-dihydro-1H-pyrimido[4,5d]pyrimidin-2-one] | – | – |
| < 10 | < 10 | < 10 | < 10 | – | COc1ccc(N2C(=O)N([C@H]3CC[C@H](O)CC3)c3nc(Nc4ccccc4)ncc3C2C)cc1 (mixture of isomers) [Example 20b, (±)-1-(trans-4-Hydroxy-cyclohexyl)-3-(4-methoxy-phenyl)-4-methyl-7-phenylamino-3,4-dihydro-1H-pyrimido[4,5-d]pyrimidin-2-one] | < 10 | < 10 |
| < 10 | < 10 | < 10 | < 10 | 218 to 233 | COc1ccc(N2C(=O)N(c3ccccc3)c3nc(Nc4ccccc4)ncc3[C@H]2C)cc1 (single isomer, unassigned) [Example 2] | – | – |
